The METLIN SMRT retention time set (Domingo-Almenara et al. 2019)

Test: gradient 5% acetonitrile 3 min, to 50% in 2 min, to 85% in 15 min, held 3 min, 100 µL/min
Details: column: Zorbax Extend-C18 2.1 x 50 mm; eluents: water / acetonitrile, 0.1% formic acid
Summary of the method: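 Each retention time is based on an adduct peak selected computationally and verified by manual inspection. Measurements used HPLC–quadrupole time-of-flight mass spectrometry in positive and negative ionization mode on mixtures of ~100 pure standards. Chromatography ran on a Zorbax Extend-C18 column (2.1 × 50 mm, 1.8 μm) at 100 μL/min with water and acetonitrile, each containing 0.1% formic acid, and dead and dwell volumes of 40 μL and 900 μL.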

RP-LC retention time	Compound
1220 s	CC1=NS(=O)(=O)N(Cc2ccccc2)C=C1C(=O)OCc1ccc(C)cc1C
595 s	O=C(C1CCC1)N1CCCCCC1CN1CCOCC1 (centres undefined)
641 s	CCCN1CCN(CCNC(=O)C2CCCN(c3ncc(-c4cccc(F)c4)cn3)C2)CC1 (centres undefined)
706 s	C=CCc1ccccc1OCC(O)CNC(C)C (centres undefined)
553 s	OC[C@@H]1CN(C2CCCC2)C[C@H]1c1nc(-c2ccncc2)no1
789 s	CN1c2ccc(Cl)cc2C(=O)NC12CCN(C(=O)NCc1ccccc1)CC2
818 s	CN1c2ccc(Cl)cc2C(=O)NC12CCN(C(=O)c1ccc(F)cc1)CC2
928 s	O=C(Cn1nc2c(N3CCN(c4ccccc4)CC3)nccn2c1=O)Nc1ccccc1Cl
780 s	C=CCNC(=O)C1CCCN(C(=O)Nc2ccc(NC(=O)Nc3ccc(CC)cc3)cc2)C1 (centres undefined)
863 s	Cc1ccn2c(NC(=O)c3cccc([N+](=O)[O-])c3)c(-c3ccc(F)cc3)nc2c1
1390 s	FC(F)(F)c1cnc(N2CCN(c3ccccc3)CC2)c(Cl)c1
774 s	O=C(CCc1csc2nc(-c3ccc(Cl)cc3)cn12)Nc1nccs1
867 s	COC(=O)c1cc(S(=O)(=O)N2CCCC2C(=O)Nc2cc(OC)cc(OC)c2)cn1C (centres undefined)
891 s	Cc1ccnc(NC(=O)C2CCCN(S(=O)(=O)c3cc(-c4noc(C5CCC5)n4)cs3)C2)c1 (centres undefined)
669 s	Cc1cc(NC(=O)Cn2cnc(-c3cccs3)cc2=O)no1
862 s	CCSc1ccccc1C(=O)NCCS(=O)(=O)N1CCc2ccccc2C1
1260 s	CCCCN1C(=O)c2cc(S(=O)(=O)N3CCc4ccccc43)ccc2Oc2cccnc21
877 s	O=C(NCc1nc(-c2ccc(N3CCCCC3)cc2)no1)c1cccs1
756 s	CCC(CC)NC(=O)C1Cn2cccc2C(=O)N1CC(C)C (centres undefined)
609 s	CC(C)NC(=O)N1CCN(Cc2nc3cccnc3n2-c2cccc(F)c2)CC1
568 s	O=C(Nc1ccc(F)cc1F)N1CCc2nc[nH]c2C1
962 s	CCc1ccc(NC(=O)N(C)CCc2noc(COc3ccccc3)n2)cc1
604 s	Fc1cccc(CN2CCc3nc(N4CCOCC4)ncc3C2)c1
890 s	CN1c2ccccc2C(=O)N2CCc3c([nH]c4ccccc34)C21 (centres undefined)

RP-LC retention time	Compound
866 s	Oc1ccc([C@@H]2Oc3ccc(O)cc3[C@@H]3CCC[C@@H]32)cc1
638 s	O=C(Nc1c(-c2ccccc2)nc2ccccn12)c1ccccc1F
728 s	O=C(Cn1cnc2nc3c(cc2c1=O)CCCC3)NCCc1ccccc1
943 s	Cc1ccc(NC(=O)CN2C(=O)C3CCCCN3c3ccc(S(=O)(=O)N(C)C)cc32)cc1 (centres undefined)
650 s	CCc1cccc(NC(=O)N2CCC(n3cnnc3C)CC2)c1
636 s	COc1ccc(OC)c(S(=O)(=O)N2CCCC(C(=O)NCCO)C2)c1 (centres undefined)
672 s	CCCNC(=O)C1CCN(c2ccc(SCC(=O)NCc3cccc(C(F)(F)F)c3)nn2)CC1
591 s	CC(C)NC(=O)Nc1ccccc1NC(=O)c1cccnc1
624 s	CC1=C(c2ccc(C)cc2)S(=O)(=O)N=C1N1CCCN(C(=O)Cc2cccnc2)CC1
697 s	CCc1nncn1C1CCN(S(=O)(=O)c2cccc(C)c2)CC1
748 s	CCCN(C(C)=O)c1nc(-c2ccc(C3CCCCC3)cc2)cs1
900 s	COc1ccc(-c2nnc(COc3ccc(NC(=O)Cc4cccs4)cc3)o2)cc1
707 s	CCCS(=O)(=O)N1CCCN(S(=O)(=O)c2ccccc2)CCC(=O)NCC1
933 s	Fc1cccc(CNc2nnc(-c3nnc(C4CC4)o3)c3ccccc23)c1
1130 s	Cc1cccc(N2CCN(S(=O)(=O)c3cc(-c4nnc(C5CC5)o4)co3)CC2)c1C
680 s	Cn1cc(-c2cc3n(n2)CCC(=O)N3CCCC(=O)NCC2COCCO2)c2ccccc21 (centres undefined)
574 s	O=C(c1c(F)cccc1Cl)N1CCN(c2nccn2-c2ccccc2F)CC1
624 s	CN(C)C(=O)c1cn(C2CN(C(=O)c3ccc(C#N)cc3)C2)nn1
597 s	O=C1CCCc2cc(S(=O)(=O)Nc3ccc(CN4CCCCC4)cc3)ccc2N1
647 s	O=C(c1nnc(-c2ccc(S(=O)(=O)N3CCOCC3)cc2)o1)N1CCN(C2CCCCC2)CC1
810 s	Cc1nn(-c2ccc(Cl)cc2)c(C)c1S(=O)(=O)N1CCC(C(=O)N2CCOCC2)CC1
558 s	CCN(CC)c1nc(C(=O)NCCN2CCOCC2)nc2nc(C)cc(C)c12
588 s	CC(=O)N1CCC2(CC1)CC(CC(=O)O)CCO2 (centres undefined)
1100 s	CCc1nc(-c2csc(S(=O)(=O)N3CCCC(C(=O)Nc4ccc(Cl)cc4C)C3)c2)no1 (centres undefined)

The remaining lines, values behind:

Compound	RP-LC retention time
CCn1cnc(S(=O)(=O)N2CCCC(C(=O)Nc3cccc(CN4CCCC4)c3)C2)c1 (centres undefined)	607 s
Cc1nc(C)c(-c2nnc(NC(=O)c3ccc(=O)[nH]n3)o2)s1	578 s
COC(=O)C1=CN(C2CC2)c2cc(N3CCN(C(C)C)CC3)c(F)cc2S1(=O)=O	740 s
CCc1ccc(CNC(=O)C2CCCN(c3ccc(=O)n(-c4ccc(F)cc4)n3)C2)cc1 (centres undefined)	910 s
CN1CCc2nnc(C3CCN(C(=O)Nc4ccc(Cl)cc4C(F)(F)F)C3)n2CC1 (centres undefined)	610 s
Cc1ccc(F)cc1S(=O)(=O)N1CCc2c(c(-c3nnc(-c4ccccc4)o3)nn2C)C1	846 s
CN(CC1CCOCC1)S(=O)(=O)c1cccc(Cl)c1	876 s
COCCCn1c(=O)c2ccccc2n(Cc2nc(-c3ccc(Br)cc3)no2)c1=O	1120 s
CCN(CC)C(=O)c1ccccc1NC(=O)c1ccc2c(c1)-c1ccccc1S(=O)(=O)N2CC	992 s
CN(Cc1ccco1)C(=O)c1ccc2ncnc(N3CCCCC3)c2c1	632 s
CN(CC(=O)NC1CCCC1)S(=O)(=O)c1ccc2nc(-c3ccccc3)[nH]c2c1	754 s
CCc1nnc2ccc(-c3noc(Cc4cccc(Cl)c4)n3)cn12	896 s
CC(C)c1ccc(-c2noc(N3CCC(C(=O)NCCN4CCCC4)CC3)n2)cc1	730 s
O=C(C1CCCC1)N1CCCCC1c1nc(C2CC2)n[nH]1 (centres undefined)	676 s
O=C(Cn1ccc2ccc(N3CCOCC3)nc21)NCc1ccco1	773 s
CCC(Sc1nc2ccccc2[nH]1)C(=O)Nc1nnc(C)s1 (centres undefined)	689 s
CCCn1c(C2CCN(C(=O)Nc3ccc(C)cc3)CC2)cc(=O)n2nccc12	653 s
CCc1ccccc1NC(=O)COc1cc(C)nc(N2CCN(c3ccccc3)CC2)n1	935 s
Cc1ccccc1CNC(=O)C1CCN(S(=O)(=O)c2cc(C(=O)N3CCCC3)n(C)c2)CC1	738 s
CC(=O)N1CCN(c2nc3c(s2)CC(C(=O)NCc2cc(F)cc(F)c2)CC3)CC1 (centres undefined)	597 s
Cc1ccc2c(Nc3ccc(F)cc3)c(C(=O)N3CCCC3)cnc2n1	594 s

Compound	RP-LC retention time
O=C(c1cccs1)N1CCOc2ccc(N3CCCC3)cc2C1	825 s
CCCN1CCN(C(=O)C(C)C2CCN(S(=O)(=O)c3ccc(Br)s3)CC2)CC1 (centres undefined)	689 s
O=C(Cn1ccc2ccc(N3CCOCC3)nc21)NCc1ccc(F)c(Cl)c1	920 s
O=C(CCC1CCCC1)N1CCC(c2noc(-c3ccc(Cl)cc3)n2)CC1	1320 s
CCCN1C(=O)c2c(C(=O)OC)ncn2CC1(C)C(=O)NCc1ccccc1 (centres undefined)	640 s
COc1ccc(C(C)NC(=O)Cc2c[nH]c3ncccc23)cc1 (centres undefined)	614 s
CCOc1ccc2nc(NC(=O)Cc3csc4nc(-c5ccc(C)c(C)c5)cn34)sc2c1	980 s
CCOc1cccc(CNC(=O)c2nnc(-c3ccc(S(=O)(=O)N(C)C)cc3)o2)c1	893 s
Cc1ccc(Cn2cc(-c3ccncc3)cc2C(=O)NCC(C)C)cc1	720 s
Cc1nnc(N2CCCC(C(=O)NCCc3cccs3)C2)c2nn(-c3ccccc3)c(C)c12 (centres undefined)	720 s
O=C(Cn1nc2c(Oc3ccc(Cl)cc3)nccn2c1=O)NC1CCCCC1	881 s
CC(NC(=O)c1cn(-c2cc(-c3nc(C(C)(C)C)no3)ccn2)cn1)c1ccccc1 (centres undefined)	1100 s
CCn1c(=O)c(N2CCC(NC(=O)Nc3ccc(Br)cc3)CC2)nc2ccccc21	1020 s
O=C(Nc1nc(-c2ccc(Cl)cc2)cs1)c1cccc(-n2cnnc2)n1	865 s
CCCn1c(CCNC(=O)c2ccc(C)c(F)c2)nc2cccnc21	695 s
CCNc1cc(N2CCCC(CCC(=O)NCCc3cccs3)C2)ncn1 (centres undefined)	639 s
CC1CCN(C(=O)C2CCN(c3ccc4nnc(-c5ccccc5)n4n3)CC2)CC1	902 s
CN(C)c1ccc(C(=O)NC2CCN(c3cc(-c4ccc(F)cc4)[nH]n3)C2)cc1 (centres undefined)	733 s
COc1ccccc1NC(=O)N1CCN(Cc2nc3cc(Cl)ccc3o2)CC1	771 s
C[C@H](NC(=O)c1cc2ccccc2[nH]1)C(=O)NCCc1c[nH]c2ccccc12	1150 s
